Experimental data: patent US9365574B2, “Soluble guanylate cyclase activators” (Merck Sharp & Dohme Corp., priority 2010, dated 2016)

Columns and labels:
sGC = molecular target: T1, sGC (Homo sapiens, UniProt Q02108+Q02153); assay: Cell-based sGC Functional Assay (CASA Assay), cGMP generation in CHO-K1/sGC cells; conditions: without ODQ incubation; for EC50: read-out: inflection points (IP)
T1 construct: expressed in transfected cells; host or cells: CHO-K1 (clone #7, CHO-K1/sGC)
T1 sequence (Q02108 1-690): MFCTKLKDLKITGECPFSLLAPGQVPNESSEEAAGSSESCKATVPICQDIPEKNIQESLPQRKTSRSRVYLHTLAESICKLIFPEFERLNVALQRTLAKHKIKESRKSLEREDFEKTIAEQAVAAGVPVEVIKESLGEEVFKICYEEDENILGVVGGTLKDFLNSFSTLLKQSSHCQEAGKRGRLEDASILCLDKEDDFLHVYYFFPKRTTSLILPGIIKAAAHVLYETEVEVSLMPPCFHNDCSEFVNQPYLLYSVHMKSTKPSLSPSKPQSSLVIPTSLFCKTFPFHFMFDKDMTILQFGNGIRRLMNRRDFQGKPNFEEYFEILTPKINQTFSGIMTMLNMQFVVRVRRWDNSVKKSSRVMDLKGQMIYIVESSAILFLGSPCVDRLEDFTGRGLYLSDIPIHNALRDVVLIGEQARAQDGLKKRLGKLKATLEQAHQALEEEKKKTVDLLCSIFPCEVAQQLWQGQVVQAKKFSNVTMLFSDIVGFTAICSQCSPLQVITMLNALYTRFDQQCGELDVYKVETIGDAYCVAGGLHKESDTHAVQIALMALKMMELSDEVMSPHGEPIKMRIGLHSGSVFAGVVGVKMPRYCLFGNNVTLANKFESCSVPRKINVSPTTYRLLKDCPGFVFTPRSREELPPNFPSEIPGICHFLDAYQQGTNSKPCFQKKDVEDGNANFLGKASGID
T1 sequence (Q02153 1-619): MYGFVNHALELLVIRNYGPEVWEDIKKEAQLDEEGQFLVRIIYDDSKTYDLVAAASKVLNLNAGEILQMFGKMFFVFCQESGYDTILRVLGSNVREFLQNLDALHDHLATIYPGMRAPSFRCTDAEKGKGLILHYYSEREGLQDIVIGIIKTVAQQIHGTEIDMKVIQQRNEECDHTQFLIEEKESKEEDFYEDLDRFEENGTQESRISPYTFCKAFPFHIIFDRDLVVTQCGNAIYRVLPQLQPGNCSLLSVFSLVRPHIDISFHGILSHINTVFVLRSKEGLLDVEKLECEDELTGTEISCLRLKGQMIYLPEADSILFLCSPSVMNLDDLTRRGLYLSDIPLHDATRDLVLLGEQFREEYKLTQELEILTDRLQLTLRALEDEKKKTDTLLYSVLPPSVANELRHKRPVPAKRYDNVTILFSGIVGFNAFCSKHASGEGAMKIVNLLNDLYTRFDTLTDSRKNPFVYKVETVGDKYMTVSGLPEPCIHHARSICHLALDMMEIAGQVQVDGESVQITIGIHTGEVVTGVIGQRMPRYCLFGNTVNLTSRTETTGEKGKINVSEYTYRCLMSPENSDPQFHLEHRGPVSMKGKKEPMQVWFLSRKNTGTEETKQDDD
Source text: Cell-based sGC Functional Assay (CASA Assay)
sGC is a heme-containing enzyme that converts GTP to secondary messenger cGMP. Increases in cGMP levels affect several physiological processes including vasorelaxation through multiple downstream pathways. […] Heme-dependent activators (HDAs) preferentially activate sGC containing a ferrous heme group. To determine the effect of sGC activators on enzyme activity, the CASA assay was developed to monitor the generation of cGMP in a cell line that stably expresses the heterodimeric sGC protein.
A CHO-K1 cell line stably expressing the sGC a up heterodimer was generated using a standard transfection protocol. CHO-K1 cells were transfected with plasmids pIREShyghsGCα1 and pIRESneo-hsGCβ1 simultaneously using FUGENE reagent. Clones that stably express both subunits were selected with hygromycin and neomycin for weeks. Clone #7 was chosen for the assay and was designated CHO-K1/sGC. CHO-K1/sGC cells were maintained in F-K12 medium containing 10% heat-inactivated Fetal Bovine Serum (FBS), 100 μg/mL penicillin/streptomycin, 0.5 mg/mL hygromycin and 0.25 mg/mL G418. On the day of the assay, cells were harvested in EBSS Assay Buffer (EAB) containing 5 mM MgCl2, 10 mM HEPES (4-(2-hydroxyethyppiperazine-1-ethanesulfonic acid) and 0.05% BSA (bovine serum albumin) and cell density was adjusted to 2×10^6/mL with EAB. IBMX (3-isobutyl-1-methylxanthin, 0.5 mM) was added to inhibit degradation of cGMP. Compounds were diluted from DMSO stock solutions and added to the assay at a final DMSO concentration of 1%. Cells were incubated with compounds in the presence and absence of 10 μM of 1H-(1,2,4)oxadiazolo(4,3-a) quinoxalin-1-one (ODQ) for 1 hr at 37° C. At the end of the incubation period, the reaction was terminated and the cells were lysed. The level of intracellular cGMP was determined using an HTRF-based assay kit (CisBio, 62GM2PEC), which detects the displacement of a fluorescence labeled cGMP from its specific antibody. The amount of cGMP was plotted against compound concentration in PRISM software and the IP and maximum fold induction over DMSO control were derived from the plot.

[1] = system: Spontaneously hypertensive rats (SHR); assay: Acute Efficacy in Spontaneously Hypertensive Rats (SHR), telemetry blood pressure; format: in vivo, rat
In short: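 Male SHR with aortic telemetry catheters, 14-day recovery, conscious and freely moving; single oral gavage in 10% transcutol/20% Cremophor/70% water. BP sampled 30 s every 10 min, hourly averages minus prior-day vehicle baseline; value is maximum peak SBP decrease at stated mg/kg PO dose.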

| SMILES | Maximum fold induction over DMSO control (sGC) | EC50 (sGC) [nM] | Maximum peak decrease of systolic blood pressure (SBP) in SHR, Category ([1]; single oral dose 0.1 mpk P.O.) | Maximum peak decrease of systolic blood pressure (SBP) in SHR, Category ([1]; single oral dose 0.3 mpk P.O.) |
| --- | --- | --- | --- | --- |
| CC1(c2ccccc2)C(=O)Nc2nc(-n3nc(CCC(F)(F)C(F)(F)F)c4cc(Cl)ccc43)nc(N)c21 (stereo not drawn) [Example 2, 4-Amino-2-[5-Chloro-3-(3,3,4,4,4-Pentafluorobutyl)-1H-Indazol-1-yl]-5-Methyl-5-Phenyl-5,7-Dihydro-6H-Pyrrolo[2,3-D]Pyrimidin-6-One] | 133 | 114 | – | – |
| CC1(c2ccccc2)C(=O)Nc2nc(-n3nc(CCC(F)(F)C(F)(F)F)c4cc(F)ccc43)nc(N)c21 (stereo not drawn) [Example 26, 4-amino-2-[5-fluoro-3-(3,3,4,4,4-pentafluorobutyl)-1H-indazol-1-yl]-5-methyl-5-phenyl-5,7-dihydro-6H-pyrrolo[2,3-d]pyrimidin-6-one] | 156 | 212 | – | – |
| CC1(c2ccccc2)C(=O)Nc2nc(-c3nn(CCC(F)(F)C(F)(F)F)c4cc(Cl)ccc34)nc(N)c21 (stereo not drawn) [Example 58, 4-Amino-2-[6-Chloro-1-(3,3,4,4,4-Pentafluorobutyl)-1H-Indazol-3-yl]-5-Methyl-5-Phenyl-5,7-Dihydro-6H-Pyrrolo[2,3-D]Pyrimidin-6-One] | 225 | 50 | – | – |
| CC1(c2ccccc2)C(=O)Nc2nc(-c3nn(CCC(F)(F)C(F)(F)F)c4cc(F)ccc34)nc(N)c21 (stereo not drawn) [Example 70, 4-amino-2-[6-fluoro-1-(3,3,4,4,4-pentafluorobutyl)-1H-indazol-3-yl]-5-methyl-5-phenyl-5,7-dihydro-6H-pyrrolo[2,3-d]pyrimidin-6-one] | 126 | 46 | – | – |
| CC1(c2ccc(F)cc2)C(=O)Nc2nc(-c3nc(CCC(F)(F)C(F)(F)F)n4cc(Cl)ccc34)nc(N)c21 (stereo not drawn) [Example 105, 4-Amino-2-[6-Chloro-3-(3,3,4,4,4-Pentafluorobutyl)Imidazo[1,5-A]Pyridin-1-yl]-5-(4-Fluorophenyl)-5-Methyl-5,7-Dihydro-6H-Pyrrolo[2,3-D]Pyrimidin-6-One] | 150 | 258 | – | – |
| CC1(c2ccccc2)C(=O)Nc2nc(-c3nc(CCC(F)(F)C(F)(F)F)n4cc(Cl)ccc34)nc(N)c21 (stereo not drawn) [Example 136, 4-amino-2-[6-chloro-3-(3,3,4,4,4-pentafluorobutyl)imidazo[1,5-a]pyridin-1-yl]-5-methyl-5-phenyl-5,7-dihydro-6H-pyrrolo[2,3-d]pyrimidin-6-one] | 52 | 139 | – | – |
| CC1(C(=O)NC2CC2)C(=O)Nc2nc(-c3nn(CCC(F)(F)C(F)(F)F)c4ncc(Cl)cc34)nc(N)c21 (stereo not drawn) [Example 268, 4-amino-2-[5-chloro-1-(3,3,4,4,4-pentafluorobutyl)-1H-pyrazolo[3,4-b]pyridin-3-yl]-N-cyclopropyl-5-methyl-6-oxo-6,7-dihydro-5H-pyrrolo[2,3-d]pyrimidine-5-carboxamide] | – | – | B (Category B=SBP in SHRs 25-40 mmHg) | – |
| Cc1nnc(C2(C)C(=O)Nc3nc(-c4nn(CCC(F)(F)C(F)(F)F)c5ncc(Cl)cc45)nc(N)c32)o1 (stereo not drawn) [Example 269, 4-amino-2-[5-chloro-1-(3,3,4,4,4-pentafluorobutyl)-1H-pyrazolo[3,4-b]pyridin-3-yl]-5-methyl-5-(5-methyl-1,3,4-oxadiazol-2-yl)-5,7-dihydro-6H-pyrrolo[2,3-d]pyrimidin-6-one] | – | – | – | C (Category C=SBP in SHRs>40 mmHg) |
| CC1(C(N)=O)C(=O)Nc2nc(-c3nc(CCC(F)(F)C(F)(F)F)c4ccccn34)nc(N)c21 (stereo not drawn) [Example 270, 4-amino-5-methyl-6-oxo-2-[1-(3,3,4,4,4-pentafluorobutyl)imidazo[1,5-a]pyridin-3-yl]-6,7-dihydro-5H-pyrrolo[2,3-d]pyrimidine-5-carboxamide] | – | – | – | A (Category A=SBP in SHRs<25 mmHg) |
